These results are taken from patent US7615639B2, “1-pyridyl-benzofuro[3,2-b]pyridin-2(1H)-ones” (Tibotec Pharmaceuticals, Ltd., priority 2004, dated 2009).

The test system of this experiment is HIV. Put plainly: Cellular assay: anti-viral activity in HIV-infected MT4 cells (MTT read-out). Type of experiment: cell-based. Particulars: Human immunodeficiency virus 1, 120 h, five days incubation, MTT cell viability, negative logarithm of EC50 (protection of 50% of cells from cytopathogenic effect of the virus). Here is the method: The compounds of the present invention were examined for anti-viral activity in a cellular assay, which was performed according to the following procedure.
HIV- or mock-infected MT4 cells were incubated for five days in the presence of various concentrations of the inhibitor. At the end of the incubation period, the replicating virus in the control cultures has killed all HIV-infected cells in the absence of any inhibitor. Cell viability was determined by measuring the concentration of MTT, a yellow, water soluble tetrazolium dye that is converted to a purple, water insoluble formazan in the mitochondria of living cells only. Upon solubilization of the resulting formazan crystals with isopropanol, the absorbance of the solution was monitored at 540 nm. The values correlate directly to the number of living cells remaining in the culture at the completion of the five day incubation. The inhibitory activity of the compound was monitored on the virus-infected cells and was expressed as EC50 and EC90. These values represent the amount of the compound required to protect 50% and 90%, respectively, of the cells from the cytopathogenic effect of the virus. The toxicity of the compound was measured on the mock-infected cells and was expressed as CC50, which represents the concentration of compound required to inhibit the growth of the cells by 50%. The selectivity index (SI) (ratio CC50/EC50) is an indication of the selectivity of the anti-HIV activity of the inhibitor. Wherever results are reported as e.g. pEC50 or pCC50 values, the result is expressed as the negative logarithm of the result expressed as EC50 or CC50 respectively.
In general terms: Protection from cytopathic effect is a common read-out in antiviral testing.
For `Cn1c2ccccc2c2c1ccc(=O)n2-c1cc2ccccc2s1` [Compound 6], the EC50 was 12.6 µM. With `Cn1c2ccccc2c2c1cc(C#N)c(=O)n2-c1ccc(Cl)nc1` [Compound 7, 1-(6-Chloropyridin-3-yl)-5-methyl-2-oxo-2,5-dihydro-1H-pyrido[3,2-b]indole-3-carbonitrile] the figure was 0.794 µM; with `Cn1c2ccccc2c2c1cc(C#N)c(=O)n2-c1cnc2ccccc2c1` [Compound 9], 2.51 µM; with `Cn1c2ccccc2c2c1cc(C#N)c(=O)n2-c1cncnc1` [Compound 11], 20 µM.

Regarding `Cn1c2ccccc2c2c1cc(C#N)c(=O)n2-c1ccc(C#N)nc1` [Compound 14], the EC50 is 10 µM. Turning to `Cn1ccc2cc(-n3c(=O)ccc4c3c3ccccc3n4C)ccc21` [Compound 17], the EC50 was 6.31 µM. Then `N#Cc1cc2[nH]c3ccccc3c2n(-c2ccnc(Cl)c2)c1=O` [Compound 19], with 15.8 µM. With `Cn1c2ccccc2c2c1cc(C#N)c(=O)n2-c1ccnc(C(N)=O)c1` [Compound 20] the figure was 5.01 µM; with `Cn1c2ccccc2c2c1cc(C#N)c(=O)n2-c1ccc2nc(C(F)(F)F)cn2c1` [Compound 21], 12.6 µM; with `N#Cc1cc2[nH]c3ccccc3c2n(-c2ccc(Cl)nc2)c1=O` [Compound 26], 2.51 µM. Then `Cn1c2ccccc2c2c1ccc(=O)n2-c1cnc2ccccc2c1` [Compound 27], with 6.31 µM; and `Cn1c2ccccc2c2c1cc(C#N)c(=O)n2-c1ccc(Br)nc1` [Compound 28], with 3.16 µM.

Take `Cc1ccc(-n2c(=O)c(C#N)cc3c2c2ccccc2n3C)cn1` [Compound 32, 5-Methyl-1-(6-methyl-pyridin-3-yl)-2-oxo-2,5-dihydro-1H-pyrido[3,2-b]indole-3-carbonitrile]: the EC50 was 1 µM. Then `Cc1cc(-n2c(=O)c(C#N)cc3c2c2ccccc2n3C)cnc1Cl` [Compound 34, 1-(6-Chloro-5-methyl-pyridin-3-yl)-5-methyl-2-oxo-2,5-dihydro-1H-pyrido[3,2-b]-indole-3-carbonitrile], with 0.794 µM; and `COc1ccc(-n2c(=O)c(C#N)cc3c2c2ccccc2n3C)cn1` [Compound 35], with 3.16 µM.

Regarding `Cn1c2ccccc2c2c1cc(C#N)c(=O)n2-c1ccc(F)nc1` [Compound 36], the EC50 was 7.94 µM. Turning to `COc1ncc(-n2c(=O)c(C#N)cc3c2c2ccccc2n3C)cn1` [Compound 37], the EC50 is 2.51 µM.

Consider `Cn1c2ccc(O)cc2c2c1cc(C#N)c(=O)n2-c1ccc(Cl)nc1` [Compound 43, 1-(6-Chloro-pyridin-3-yl)-8-hydroxy-5-methyl-2-oxo-2,5-dihydro-1H-pyrido[3,2-b]-indole-3-carbonitrile], for which the EC50 was 3.98 µM.

Usually EC50 stands for the midpoint of the concentration-response curve.
